Values joined by “and” are separate entries in the source; they are usually repeats but may differ in a detail not shown here. Identical values can stand only once. Like-named read-outs stand apart in the source and are kept apart here. Blank lines part the entries; values can stand above or below the compound they belong to.
How the values were obtained:
[1] = for Concentration: subcutaneous 15.9 μmole/kg, individual animals
in vivo [2] = settings: male, Sprague Dawley, rat, sc
in vivo [3] = settings: male, Sprague Dawley, rat, sc; remark: listed apart in the source
male Sprague-Dawley rats [4] = settings: rat, in vivo
[5] = molecular target: T1, kappa opioid receptor (rat) (Rattus norvegicus, UniProt P34975); experiment: Rat kappa-opioid receptor (agonist radioligand [3H] U 69593) binding assay; settings: for % Inhibition of Control Specific Binding: kappa-opioid receptor binding, replicates 1st/2nd
T1 construct: Eurofins Cerep (France)
T1 sequence (P34975 whole entry): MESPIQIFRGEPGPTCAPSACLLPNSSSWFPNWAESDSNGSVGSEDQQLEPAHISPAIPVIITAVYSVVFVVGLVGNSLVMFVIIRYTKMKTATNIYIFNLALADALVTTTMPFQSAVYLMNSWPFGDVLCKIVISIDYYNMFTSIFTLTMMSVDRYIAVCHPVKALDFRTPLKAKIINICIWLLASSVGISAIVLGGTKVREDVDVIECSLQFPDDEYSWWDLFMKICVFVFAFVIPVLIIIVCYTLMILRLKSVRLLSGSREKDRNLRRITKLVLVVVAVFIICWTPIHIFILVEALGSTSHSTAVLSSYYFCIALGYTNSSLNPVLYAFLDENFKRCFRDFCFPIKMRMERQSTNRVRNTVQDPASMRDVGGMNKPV

male Sprague-Dawley rats [6] = experiment: Gastrointestinal (GI) transit (charcoal meal) assays; assay type: in vivo, rat; settings: rat, in vivo
purified human TTR = purified human TTR (Homo sapiens, UniProt P02766); experiment: Fluorescence polarization (FP) binding assay, ligands to TTR in buffer
[7] = molecular target: T2, delta-opioid receptor (human) (Homo sapiens, UniProt P41143); experiment: Human delta-opioid receptor (agonist radioligand [3H]-DADLE) binding assay; settings: for % Inhibition of Control Specific Binding: delta-opioid receptor binding, replicates 1st/2nd
T2 construct: Eurofins Cerep (France)
T2 sequence (P41143 whole entry): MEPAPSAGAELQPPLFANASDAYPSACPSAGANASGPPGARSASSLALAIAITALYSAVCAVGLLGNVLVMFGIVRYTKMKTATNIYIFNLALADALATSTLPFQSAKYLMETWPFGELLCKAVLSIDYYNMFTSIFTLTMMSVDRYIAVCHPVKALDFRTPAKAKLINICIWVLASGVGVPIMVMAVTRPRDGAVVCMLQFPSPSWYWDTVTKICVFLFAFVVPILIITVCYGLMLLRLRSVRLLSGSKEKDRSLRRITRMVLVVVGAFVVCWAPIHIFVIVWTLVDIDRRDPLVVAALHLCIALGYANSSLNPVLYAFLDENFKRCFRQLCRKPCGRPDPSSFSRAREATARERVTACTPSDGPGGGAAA

TTR in human serum = TTR in human serum (Homo sapiens, UniProt P02766); experiment: TTR serum fluorescent probe exclusion (FPE) selectivity assay; assay type: binding; settings: ligand 10 µM; for %FPE probe fluorescence: human serum, replicates
[8] = molecular target: human mu-opioid receptors (Homo sapiens, UniProt P35372); experiment: biochemical; assay type: binding; settings: binding affinity to mu-opioid receptor (Ki)
human mu-opioid receptors, sequence (P35372 whole entry): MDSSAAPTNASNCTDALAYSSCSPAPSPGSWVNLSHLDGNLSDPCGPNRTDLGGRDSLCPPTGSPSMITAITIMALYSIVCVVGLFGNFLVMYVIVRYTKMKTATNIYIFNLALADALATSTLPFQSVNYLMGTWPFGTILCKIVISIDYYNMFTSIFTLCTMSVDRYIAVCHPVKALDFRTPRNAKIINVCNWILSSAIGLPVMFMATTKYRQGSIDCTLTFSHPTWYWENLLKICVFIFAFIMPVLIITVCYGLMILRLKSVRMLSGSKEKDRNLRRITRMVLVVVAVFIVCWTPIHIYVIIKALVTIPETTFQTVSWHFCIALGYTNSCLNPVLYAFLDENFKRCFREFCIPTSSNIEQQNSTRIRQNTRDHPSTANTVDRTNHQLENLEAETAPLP

holo-RBP-TTR interaction = holo-RBP-TTR interaction (Homo sapiens, UniProt P02766); experiment: Effect on holo-RBP-TTR interaction in human serum (cross-linking, Western blot); settings: human serum, quantified from gel image, replicates (Supp Fig.14b)

Structure (SMILES): COc1ccc2c3c1O[C@H]1[C@@H](OCc4cn(CCNCCCCCCOc5cc(OCCCc6c(C)n[nH]c6C)cc(C(=O)O)c5)nn4)CC[C@@]4(O)[C@@H](C2)N(C)CC[C@]314 [AG10-L2-Oxy]
- k ([1]; rat, single SC dose 16 µmol/kg): 0.15 ± 0.02 h⁻¹
- Concentration ([1]; time 0.03 h): 1980.92 nM and 1419.06 nM and 1694.61 nM
- Concentration ([1]; time 0.5 h): 6994.54 nM and 3873.66 nM and 4264.25 nM
- Concentration ([1]; time 0.75 h): 6976.39 nM and 5017.1 nM and 7890.95 nM
- Concentration ([1]; time 1 h): 6606.43 nM and 5966.57 nM and 8438.91 nM
- Concentration ([1]; time 2 h): 5069.67 nM and 5721.19 nM and 8480.16 nM
- Concentration ([1]; time 4 h): 2353.83 nM and 3068.56 nM and 2535.48 nM
- Concentration ([1]; time 6 h): 732.498 nM and 360.453 nM and 640.073 nM and 668.521 nM
- Concentration ([1]; time 8 h): 132.069 nM and 207.97 nM and 223.861 nM
- Concentration ([1]; time 12 h): 78.9419 nM and 35.0657 nM and 62.9969 nM and 75.6407 nM
- Concentration ([1]; time 24 h): 12.92 nM and 13.41 nM and 14.17 nM
- Kp (in vivo [2]; percentage CSF to plasma ratio): 0
- Kp (in vivo [2]; percentage brain to plasma ratio): 0
- concentration at 0.03 h (in vivo [3]; 15.9 μmole/kg, Concentration, subcutaneous 15.9 μmole/kg, time 0.03 h, individual animals): 1340 nM
- concentration at 0.5 h (in vivo [3]; 15.9 μmole/kg, Concentration, subcutaneous 15.9 μmole/kg, time 0.5 h, individual animals): 4740 nM
- concentration at 0.75 h (in vivo [3]; 15.9 μmole/kg, Concentration, subcutaneous 15.9 μmole/kg, time 0.75 h, individual animals): 4800 nM
- concentration at 1 h (in vivo [3]; 15.9 μmole/kg, Concentration, subcutaneous 15.9 μmole/kg, time 1 h, individual animals): 6680 nM
- concentration at 2 h (in vivo [3]; 15.9 μmole/kg, Concentration, subcutaneous 15.9 μmole/kg, time 2 h, individual animals): 7090 nM
- concentration at 4 h (in vivo [3]; 15.9 μmole/kg, Concentration, subcutaneous 15.9 μmole/kg, time 4 h, individual animals): 2750 nM
- concentration at 8 h (in vivo [3]; 15.9 μmole/kg, Concentration, subcutaneous 15.9 μmole/kg, time 8 h, individual animals): 196 nM
- concentration at 24 h (in vivo [3]; 15.9 μmole/kg, Concentration, subcutaneous 15.9 μmole/kg, time 24 h, individual animals): 18.7 nM
- AUC(0-inf) (in vivo [3]; 16 umol/kg): 25.8 ± 3.09 µM·h
- CL/F (in vivo [3]; 16 umol/kg): 10.3 mL/min/kg
- Vd/F (in vivo [3]; 16 umol/kg): 4.22 ± 0.86 L/kg
- half-life (in vivo [3]; 16 umol/kg): 4.68 ± 0.52 h
- hot plate latency (male Sprague-Dawley rats [4]): 54.2 ± 4.8 s
- hot plate latency (male Sprague-Dawley rats [4]; sc): 9.5 ± 0.8 s
- Ki ([5]; [3H] U 69593 displacement, read-out: binding affinity to kappa-opioid receptor (Ki)): 0.12 µM
- % Inhibition of Control Specific Binding ([5]; 1.0E-06 M): 78.6% and 74.5%
- % Inhibition of Control Specific Binding ([5]; 1.0E-07 M): 32.2% and 33.7%
- % Inhibition of Control Specific Binding ([5]; 1.0E-08 M): 1.0% and 5.5%
- % Inhibition of Control Specific Binding ([5]; 1.0E-09 M): -3.9% and 9.9%
- % Inhibition of Control Specific Binding ([5]; 2.0E-06 M): 85.0% and 84.1%
- GI transit (% of vehicle) (male Sprague-Dawley rats [6]): 9.5 ± 2.8%
- GI transit as % of vehicle group (male Sprague-Dawley rats [6]): 9.19% and 12.07% and 6.37% and 7.14% and 12.52%
- GI transit (% of vehicle) (male Sprague-Dawley rats [6]; sc): 89.5 ± 3.0%
- GI transit as % of vehicle group (male Sprague-Dawley rats [6]; sc): 86.23% and 92.53% and 87.21% and 92.83% and 88.77%
- % Fluorescence polarization (mean) (purified human TTR; log [nM] inhibitor 0.990): 100.000%
- % Fluorescence polarization (mean) (purified human TTR; log [nM] inhibitor 1.291): 102.820%
- % Fluorescence polarization (mean) (purified human TTR; log [nM] inhibitor 1.592): 102.360%
- % Fluorescence polarization (mean) (purified human TTR; log [nM] inhibitor 1.893): 99.420%
- % Fluorescence polarization (mean) (purified human TTR; log [nM] inhibitor 2.194): 100.060%
- % Fluorescence polarization (mean) (purified human TTR; log [nM] inhibitor 2.495): 94.250%
- % Fluorescence polarization (mean) (purified human TTR; log [nM] inhibitor 2.796): 77.990%
- % Fluorescence polarization (mean) (purified human TTR; log [nM] inhibitor 3.097): 63.730%
- % Fluorescence polarization (mean) (purified human TTR; log [nM] inhibitor 3.398): 48.160%
- % Fluorescence polarization (mean) (purified human TTR; log [nM] inhibitor 3.699): 35.010%
- % Fluorescence polarization (mean) (purified human TTR; log [nM] inhibitor 4.000): 21.890%
- % Fluorescence polarization (mean) (purified human TTR; log [nM] inhibitor […]): 0.000%
- Ki ([7]; [3H]-DADLE displacement, read-out: binding affinity to delta-opioid receptor (Ki)): 0.41 µM
- % Inhibition of Control Specific Binding ([7]; 1.0E-06 M): 50.5% and 49.9%
- % Inhibition of Control Specific Binding ([7]; 1.0E-07 M): 14.8% and 19.2%
- % Inhibition of Control Specific Binding ([7]; 1.0E-08 M): 1.2% and -2.9%
- % Inhibition of Control Specific Binding ([7]; 1.0E-09 M): -6.1% and -3.7%
- % Inhibition of Control Specific Binding ([7]; 2.0E-06 M): 65.5% and 63.4%
- % TTR occupancy in human serum (TTR in human serum; FPE probe 3.6 µM, 3 h reading relative to probe alone, text mean ± s.d., table replicates): 66.15% and 66.78% and 69.04% and 66.00%
- %FPE probe fluorescence (TTR in human serum; time 0.000 h): 0.000%
- %FPE probe fluorescence (TTR in human serum; time 0.083 h): 0.549% and 0.762% and -1.844% and -1.645%
- %FPE probe fluorescence (TTR in human serum; time 0.250 h): 0.706% and 1.255% and -0.116% and -0.642%
- %FPE probe fluorescence (TTR in human serum; time 0.500 h): 2.826% and 3.272% and 3.466% and 3.115%
- %FPE probe fluorescence (TTR in human serum; time 1.000 h): 4.537% and 7.078% and 8.406% and 7.892%
- %FPE probe fluorescence (TTR in human serum; time 1.250 h): 9.016% and 10.868% and 10.718% and 11.974%
- %FPE probe fluorescence (TTR in human serum; time 1.500 h): 11.997% and 15.126% and 11.024% and 13.206%
- %FPE probe fluorescence (TTR in human serum; time 1.750 h): 15.076% and 17.659% and 14.693% and 18.815%
- %FPE probe fluorescence (TTR in human serum; time 2.000 h): 19.358% and 21.045% and 18.427% and 21.877%
- %FPE probe fluorescence (TTR in human serum; time 2.250 h): 25.163% and 23.487% and 22.045% and 24.539%
- %FPE probe fluorescence (TTR in human serum; time 2.500 h): 25.806% and 27.529% and 26.249% and 27.302%
- %FPE probe fluorescence (TTR in human serum; time 2.750 h): 30.929% and 30.377% and 27.371% and 30.854%
- %FPE probe fluorescence (TTR in human serum; time 3.000 h): 33.853% and 33.219% and 30.957% and 33.996%
- %FPE probe fluorescence (TTR in human serum; time 3.500 h): 39.372% and 39.356% and 37.472% and 40.606%
- %FPE probe fluorescence (TTR in human serum; time 3.750 h): 41.871% and 41.320% and 39.536% and 41.800%
- %FPE probe fluorescence (TTR in human serum; time 4.000 h): 43.406% and 44.388% and 42.775% and 45.047%
- %FPE probe fluorescence (TTR in human serum; time 4.250 h): 46.096% and 46.093% and 44.165% and 46.692%
- %FPE probe fluorescence (TTR in human serum; time 4.500 h): 48.403% and 48.011% and 46.251% and 48.352%
- %FPE probe fluorescence (TTR in human serum; time 4.750 h): 49.977% and 52.633% and 49.006% and 51.062%
- %FPE probe fluorescence (TTR in human serum; time 5.000 h): 52.730% and 52.156% and 49.883% and 52.401%
- %FPE probe fluorescence (TTR in human serum; time 5.250 h): 54.499% and 55.931% and 51.647% and 54.573%
- %FPE probe fluorescence (TTR in human serum; time 5.500 h): 56.002% and 55.963% and 54.625% and 55.846%
- %FPE probe fluorescence (TTR in human serum; time 5.750 h): 57.400% and 57.044% and 54.205% and 59.081%
- %FPE probe fluorescence (TTR in human serum; time 6.000 h): 57.353% and 57.260% and 55.092% and 59.796%
- Ki [8]: 0.013 µM

- %holo RBP binding to TTR (holo-RBP-TTR interaction): 7.1% and 6.9% and 6%
Structure (SMILES): NC(Cc1cc(I)c(Oc2cc(I)c(O)c(I)c2)c(I)c1)C(=O)O (centres unmarked) [Thyroxine]

Structure (SMILES): NC(N)=O [Urea]
- %holo RBP binding to TTR (holo-RBP-TTR interaction): 98.7% and 127% and 74.3%
